Measurements as given in US8859574B2 (IRM LLC, priority 2008, dated 2014).

Each molecule was assayed against T1, IGF-1R Ba/F3 (Homo sapiens, UniProt P08069) (assay: Ba/F3 Cell Viability Inhibition Assay (IGF-1R Ba/F3)). Conditions: Tel-TK transformed Ba/F3 cells, 48 hours, Britelite luminescence.
T1 construct: fused on or other part: TEL- (or BCR-) IGF-1R in Ba/F3: the kinase part holds the site
T1 sequence (P08069 999-1274 limits assumed): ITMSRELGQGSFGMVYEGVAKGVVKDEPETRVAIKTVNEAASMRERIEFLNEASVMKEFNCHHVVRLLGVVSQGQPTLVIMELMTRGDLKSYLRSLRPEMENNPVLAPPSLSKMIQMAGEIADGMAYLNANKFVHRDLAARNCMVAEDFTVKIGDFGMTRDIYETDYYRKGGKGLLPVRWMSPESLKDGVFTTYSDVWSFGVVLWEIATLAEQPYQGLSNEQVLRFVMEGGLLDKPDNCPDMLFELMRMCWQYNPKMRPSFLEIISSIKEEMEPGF
Format: cell-based, murine
In short: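 A 48 h compound treatment at 37 °C (3750 cells/well) was followed by Britelite luminescence to measure viability. Cells were Ba/F3 pro-B cells, IL-3-independent via TEL-fused IGF-1R kinase transduction. A logistic fit gave IC50 as 50% viability relative to DMSO control.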
For `Cc1cc(Nc2nc(Nc3cc(C)c(C4CCN([C@@H](C)C(N)=O)CC4)cc3C)ncc2Cl)n[nH]1` [Compound 166, (S)-2-(4-(4-(5-chloro-4-(5-methyl-1H-pyrazol-3-ylamino)pyrimidin-2-ylamino)-2,5-dimethylphenyl)piperidin-1-yl)propanamide], the IC50 was 7 nM.
`Cc1cc(Nc2nc(Nc3cc(C)c(C4CCN([C@H](C)C(N)=O)CC4)cc3C)ncc2Cl)n[nH]1` [Compound 167, (R)-2-(4-(4-(5-chloro-4-(5-methyl-1H-pyrazol-3-ylamino)pyrimidin-2-ylamino)-2,5-dimethylphenyl)piperidin-1-yl)propanamide] gave an IC50 of 6 nM.
For `CNC(=O)[C@H](C)N1CCC(c2cc(C)c(Nc3ncc(Cl)c(Nc4cc(C)[nH]n4)n3)cc2C)CC1` [Compound 168, (S)-2-(4-(4-(5-chloro-4-(5-methyl-1H-pyrazol-3-ylamino)pyrimidin-2-ylamino)-2,5-dimethylphenyl)piperidin-1-yl)-N-methylpropanamide], the IC50 was 10 nM.
With `CCNC1(C(=O)N2CCC(c3cc(F)c(Nc4ncc(Cl)c(Nc5cc(C)[nH]n5)n4)cc3C)CC2)CC1` [Compound 169, (4-(4-(5-chloro-4-(5-methyl-1H-pyrazol-3-ylamino)pyrimidin-2-ylamino)-5-fluoro-2-methylphenyl)piperidin-1-yl)(1-(ethylamino)cyclopropyl)methanone] the IC50 was 4 nM.
`CCNC1(C(=O)N2CCC(c3cc(C)c(Nc4ncc(Cl)c(Nc5cc(C)[nH]n5)n4)cc3C)CC2)CC1` [Compound 170, (4-(4-(5-chloro-4-(5-methyl-1H-pyrazol-3-ylamino)pyrimidin-2-ylamino)-2,5-dimethylphenyl)piperidin-1-yl)(1-(ethylamino)cyclopropyl)methanone] gave an IC50 of 3 nM.
With `Cc1cc(Nc2ncc(Cl)c(Nc3cc(C(F)(F)F)[nH]n3)n2)c(F)cc1C1CCNCC1` [Compound 171, 5-chloro-N2-(2-fluoro-5-methyl-4-(piperidin-4-yl)phenyl)-N4-(5-(trifluoromethyl)-1H-pyrazol-3-yl)pyrimidine-2,4-diamine] the IC50 was 67 nM.
`CNC(=O)CN1CCC(c2cc(F)c(Nc3ncc(Cl)c(Nc4cc(C(F)(F)F)[nH]n4)n3)cc2C)CC1` [Compound 172, 2-(4-(4-(5-chloro-4-(5-(trifluoromethyl)-1H-pyrazol-3-ylamino)pyrimidin-2-ylamino)-5-fluoro-2-methylphenyl)piperidin-1-yl)-N-methylacetamide] was tested, and the IC50 was 69 nM.
With `Cc1cc(Nc2ncc(Cl)c(Nc3cc(C(F)(F)F)[nH]n3)n2)c(F)cc1C1CCN(CC(N)=O)CC1` [Compound 173, 2-(4-(4-(5-chloro-4-(5-(trifluoromethyl)-1H-pyrazol-3-ylamino)pyrimidin-2-ylamino)-5-fluoro-2-methylphenyl)piperidin-1-yl)acetamide] the IC50 was 49 nM.
Work on `Cc1cc(Nc2nc(Nc3cc(C)c(C4CCN(C5CCSCC5)CC4)cc3C)ncc2Cl)n[nH]1` [Compound 174, 5-chloro-N2-(2,5-dimethyl-4-(1-(tetrahydro-2H-thiopyran-4-yl)piperidin-4-yl)phenyl)-N4-(5-methyl-1H-pyrazol-3-yl)pyrimidine-2,4-diamine] yielded an IC50 of 8 nM.
For `CCNC(C)(C)C(=O)N1CCC(c2cc(C)c(Nc3ncc(Cl)c(Nc4cc(C)[nH]n4)n3)cc2C)CC1` [Compound 175, 1-(4-(4-(5-chloro-4-(5-methyl-1H-pyrazol-3-ylamino)pyrimidin-2-ylamino)-2,5-dimethylphenyl)piperidin-1-yl)-2-(ethylamino)-2-methylpropan-1-one], the IC50 was 5 nM.
`CCNC1(C(=O)N2CCC(c3cc(F)c(Nc4ncc(Cl)c(Nc5cc(C)[nH]n5)n4)cc3C)CC2)CCC1` [Compound 176, (4-(4-(5-chloro-4-(5-methyl-1H-pyrazol-3-ylamino)pyrimidin-2-ylamino)-5-fluoro-2-methylphenyl)piperidin-1-yl)(1-(ethylamino)cyclobutyl)methanone] gave an IC50 of 84 nM.
